Numbered stars: 1 amine (or outer) side, 2 acyl side, 3 side chain; on linkers, the order of the positions; unused ones are H or OH. Bridge positions count the residues as written; N and C are the ends. Square brackets hold non-standard residues; d marks the D form. Side chains are listed from the residue outwards. Peptide text beside a SMILES is read from it. * marks the point of attachment. DOTA(Lu) = O=C1CN2CCN3CCN(CC(=O)*)CCN(CC2)CC(=O)[O][Lu]([O]1)[O]C(=O)C3; NH(1-deoxy-D-glucityl) = OC[C@@H](O)[C@@H](O)[C@H](O)[C@@H](O)CN*; DOTA = O=C(O)CN1CCN(CC(=O)O)CCN(CC(=O)*)CCN(CC(=O)O)CC1; Trp(1-Me,7-Cl) = Cn1cc(C[C@H](N)C(=O)O)c2cccc(Cl)c21; dPhe(3-CONH2) = NC(=O)c1cccc(C[C@@H](N)C(=O)O)c1; Piperazinyl(4-CH2COOH) = O=C(O)CN1CCN(*)CC1; Trp(1-Me) = Cn1cc(C[C@H](N)C(=O)O)c2ccccc21; NMemTyr = CN[C@@H](Cc1cccc(O)c1)C(=O)O; NMe3Pal = CN[C@@H](Cc1cccnc1)C(=O)O; hCit = NC(=O)NCCCC[C@H](N)C(=O)O; Gly(cBu) = N[C@H](C(=O)O)C1CCC1; NMeE = CN[C@@H](CCC(=O)O)C(=O)O; Aad = N[C@@H](CCCC(=O)O)C(=O)O; NMeN = CN[C@@H](CC(N)=O)C(=O)O; CO = O=C([*:1])[*:2]

For one test, the target named is T1, Recombinant Human EphA2 Fc Protein (Homo sapiens, UniProt P29317).
T1 construct: purchased Elabscience
T1 sequence (P29317 24-534 limits assumed): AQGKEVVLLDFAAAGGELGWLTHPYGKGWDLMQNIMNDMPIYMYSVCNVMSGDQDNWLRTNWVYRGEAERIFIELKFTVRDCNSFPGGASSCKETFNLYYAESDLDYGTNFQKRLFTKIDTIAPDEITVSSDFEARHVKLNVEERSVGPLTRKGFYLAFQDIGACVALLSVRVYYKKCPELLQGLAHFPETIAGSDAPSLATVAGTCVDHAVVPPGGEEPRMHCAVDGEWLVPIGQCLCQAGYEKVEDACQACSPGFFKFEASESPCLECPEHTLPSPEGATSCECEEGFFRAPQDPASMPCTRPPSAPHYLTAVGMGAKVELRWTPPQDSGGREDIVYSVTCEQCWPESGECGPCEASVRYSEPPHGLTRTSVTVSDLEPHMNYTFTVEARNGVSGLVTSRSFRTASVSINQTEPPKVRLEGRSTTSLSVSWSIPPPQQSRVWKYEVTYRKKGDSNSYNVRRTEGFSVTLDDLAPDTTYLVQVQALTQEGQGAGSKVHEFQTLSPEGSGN
As to the kind of experiment: Interaction analysis (kinetics, KD) of peptides and conjugates against EphA2 by SPR, Biacore T200, single-cycle kinetics (Examples B15 and B22). It counts as binding.
Settings: not given
A digest of the protocol:
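Biacore T200 SPR with Fc-tagged human EphA2 captured via anti-human antibody; running buffer HBS-P+ pH 7.4 with 1% DMSO, 25 °C. Five serial dilutions of peptide or conjugate run by single-cycle kinetics; KD from ka and kd after baseline subtraction.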
On the technique in general: In SPR one partner is held on a chip, and binding of the other changes the refractive index at the surface.
On to `CC(C)C[C@@H]1NC(=O)[C@H](CC(N)=O)NC(=O)[C@H](Cc2cccnc2)N(C)C(=O)[C@@H](Cc2cccc(C(N)=O)c2)NC(=O)CSC[C@@H](C(=O)N[C@@H](CCCCNC(=O)CN2CCN3CCN4CCN(CC2)CC(=O)[O][Lu]([O]C(=O)C3)[O]C(=O)C4)C(N)=O)NC(=O)[C@H](Cc2cn(C)c3ccccc23)NC(=O)[C@H](CCCCNC(N)=O)NC(=O)[C@H](Cc2cn(C)c3c(Cl)cccc23)NC(=O)[C@H](Cc2cccnc2)N(C)C(=O)[C@H](CO)NC1=O` [PDC_EphA2-00026601-C301] ({CH2CO}-[dPhe(3-CONH2)][NMe3Pal]NLS[NMe3Pal][Trp(1-Me,7-Cl)][hCit][Trp(1-Me)]CK(DOTA(Lu))-NH2; thioether N-10), for which the equilibrium dissociation constant (Kd) – broadly, the free concentration of one partner at which half of the binding sites on the other are occupied at equilibrium, for simple one-to-one binding – was less than 1 nM. Still for that read-out and setting: for `CN1C(=O)[C@H](CO)NC(=O)[C@H](C2CCC2)NC(=O)[C@H](CC(N)=O)NC(=O)[C@H](Cc2cccnc2)N(C)C(=O)[C@@H](Cc2cccc(C(N)=O)c2)NC(=O)CSC[C@@H](C(=O)N[C@@H](CCCCNC(=O)CN2CCN3CCN4CCN(CC2)CC(=O)[O][Lu]([O]C(=O)C3)[O]C(=O)C4)C(N)=O)NC(=O)[C@H](Cc2cn(C)c3ccccc23)NC(=O)[C@H](CCCCNC(N)=O)NC(=O)[C@H](Cc2cn(C)c3c(Cl)cccc23)NC(=O)[C@@H]1Cc1cccnc1` [PDC_EphA2-00026602-C301] ({CH2CO}-[dPhe(3-CONH2)][NMe3Pal]N[Gly(cBu)]S[NMe3Pal][Trp(1-Me,7-Cl)][hCit][Trp(1-Me)]CK(DOTA(Lu))-NH2; thioether N-10) the value was less than 1 nM. Same read-out and setting: as for `CN1C(=O)[C@H](CCC(=O)NC[C@H](O)[C@@H](O)[C@H](O)[C@H](O)CO)NC(=O)[C@H](C2CCC2)NC(=O)[C@H](CC(N)=O)NC(=O)[C@H](Cc2cccnc2)N(C)C(=O)[C@@H](Cc2cccc(C(N)=O)c2)NC(=O)CSC[C@@H](C(=O)N[C@@H](CCCCNC(=O)CN2CCN3CCN4CCN(CC2)CC(=O)[O][Lu]([O]C(=O)C3)[O]C(=O)C4)C(N)=O)NC(=O)[C@H](Cc2cn(C)c3ccccc23)NC(=O)[C@H](CCC(=O)NC[C@H](O)[C@@H](O)[C@H](O)[C@H](O)CO)NC(=O)[C@H](Cc2cn(C)c3c(Cl)cccc23)NC(=O)[C@@H]1Cc1cccnc1` [PDC_EphA2-00026604-C301] ({CH2CO}-[dPhe(3-CONH2)][NMe3Pal]N[Gly(cBu)]E(NH(1-deoxy-D-glucityl))[NMe3Pal][Trp(1-Me,7-Cl)]E(NH(1-deoxy-D-glucityl))[Trp(1-Me)]CK(DOTA(Lu))-NH2; thioether N-10), the figure is less than 1 nM; as for `CN1C(=O)[C@H](CCCC(N)=O)NC(=O)[C@H](C2CCC2)NC(=O)[C@H](CC(N)=O)NC(=O)[C@H](Cc2cccnc2)N(C)C(=O)[C@@H](Cc2cccc(C(N)=O)c2)NC(=O)CSC[C@@H](C(=O)N[C@@H](CCCCNC(=O)CN2CCN3CCN4CCN(CC2)CC(=O)[O][Lu]([O]C(=O)C3)[O]C(=O)C4)C(N)=O)NC(=O)[C@H](Cc2cn(C)c3ccccc23)NC(=O)[C@H](CCCCNC(=O)N2CCN(CC(=O)O)CC2)NC(=O)[C@H](Cc2cn(C)c3c(Cl)cccc23)NC(=O)[C@@H]1CCC(=O)O` [PDC_EphA2-00026606-C301] ({CH2CO}-[dPhe(3-CONH2)][NMe3Pal]N[Gly(cBu)][Aad](NH2)[NMeE][Trp(1-Me,7-Cl)]K([CO-Piperazinyl(4-CH2COOH)])[Trp(1-Me)]CK(DOTA(Lu))-NH2; thioether N-10), less than 1 nM; as for `CN1C(=O)[C@H](CCC(=O)NC[C@H](O)[C@@H](O)[C@H](O)[C@H](O)CO)NC(=O)[C@H](C2CCC2)NC(=O)[C@H](CC(N)=O)NC(=O)[C@H](Cc2cccnc2)N(C)C(=O)[C@@H](Cc2cccc(C(N)=O)c2)NC(=O)CSC[C@@H](C(=O)N[C@@H](CCCCNC(=O)CN2CCN3CCN4CCN(CC2)CC(=O)[O][Lu]([O]C(=O)C3)[O]C(=O)C4)C(N)=O)NC(=O)[C@H](Cc2cn(C)c3ccccc23)NC(=O)[C@H](CCCCNC(N)=O)NC(=O)[C@H](Cc2cn(C)c3c(Cl)cccc23)NC(=O)[C@@H]1CCC(=O)O` [PDC_EphA2-00026607-C301] ({CH2CO}-[dPhe(3-CONH2)][NMe3Pal]N[Gly(cBu)]E(NH(1-deoxy-D-glucityl))[NMeE][Trp(1-Me,7-Cl)][hCit][Trp(1-Me)]CK(DOTA(Lu))-NH2; thioether N-10), less than 1 nM.

For `CN1C(=O)[C@H](CCCC(N)=O)NC(=O)[C@H](C2CCC2)NC(=O)[C@H](CC(N)=O)NC(=O)[C@H](Cc2cccc(O)c2)N(C)C(=O)[C@@H](Cc2cccc(C(N)=O)c2)NC(=O)CSC[C@@H](C(=O)N[C@@H](CCCCNC(=O)CN2CCN3CCN4CCN(CC2)CC(=O)[O][Lu]([O]C(=O)C3)[O]C(=O)C4)C(N)=O)NC(=O)[C@H](Cc2cn(C)c3ccccc23)NC(=O)[C@H](CCCCNC(=O)N2CCN(CC(=O)O)CC2)NC(=O)[C@H](Cc2cn(C)c3c(Cl)cccc23)NC(=O)[C@@H]1CCC(=O)O` [PDC_EphA2-00026608-C301] ({CH2CO}-[dPhe(3-CONH2)][NMemTyr]N[Gly(cBu)][Aad](NH2)[NMeE][Trp(1-Me,7-Cl)]K([CO-Piperazinyl(4-CH2COOH)])[Trp(1-Me)]CK(DOTA(Lu))-NH2; thioether N-10), the Kd was less than 1 nM.

On to `CC(C)C[C@@H]1NC(=O)[C@H](CC(N)=O)NC(=O)[C@H](Cc2cccnc2)N(C)C(=O)[C@@H](C)NC(=O)CSC[C@@H](C(N)=O)NC(=O)[C@H](CCCC(N)=O)NC(=O)[C@H]([C@@H](C)O)NC(=O)[C@H](Cc2cn(C)c3ccccc23)NC(=O)[C@H](CCCCNC(=O)N2CCN(CC(=O)O)CC2)NC(=O)[C@H](Cc2cn(C)c3c(Cl)cccc23)NC(=O)[C@H](CCC(=O)O)N(C)C(=O)[C@H](CCCCNC(=O)CN2CCN3CCN4CCN(CC2)CC(=O)[O][Lu]([O]C(=O)C3)[O]C(=O)C4)NC1=O` [PDC_EphA2-00026631] ({CH2CO}-[dA][NMe3Pal]NLK(DOTA(Lu))[NMeE][Trp(1-Me,7-Cl)]K([CO-Piperazinyl(4-CH2COOH)])[Trp(1-Me)]T[Aad](NH2)C-NH2; thioether N-12), for which the Kd was less than 1 nM. On the same count and under the same terms, for `CC(C)C[C@@H]1NC(=O)[C@H](CC(N)=O)NC(=O)[C@H](Cc2cccnc2)N(C)C(=O)[C@@H](C)NC(=O)CSC[C@@H](C(N)=O)NC(=O)[C@H](CCCC(N)=O)NC(=O)[C@H]([C@@H](C)O)NC(=O)[C@H](Cc2cn(C)c3ccccc23)NC(=O)[C@H](CCCCNC(=O)CN2CCN3CCN4CCN(CC2)CC(=O)[O][Lu]([O]C(=O)C3)[O]C(=O)C4)NC(=O)[C@H](Cc2cn(C)c3c(Cl)cccc23)NC(=O)[C@H](CCC(=O)O)N(C)C(=O)[C@H](CCCC(N)=O)NC1=O` [PDC_EphA2-00026632] ({CH2CO}-[dA][NMe3Pal]NL[Aad](NH2)[NMeE][Trp(1-Me,7-Cl)]K(DOTA(Lu))[Trp(1-Me)]T[Aad](NH2)C-NH2; thioether N-12) the value was less than 1 nM. Take `CC(C)C[C@@H]1NC(=O)[C@H](CC(N)=O)NC(=O)[C@H](Cc2cccnc2)N(C)C(=O)[C@@H](C)NC(=O)CSC[C@@H](C(N)=O)NC(=O)[C@H](CCCCNC(=O)CN2CCN3CCN4CCN(CC2)CC(=O)[O][Lu]([O]C(=O)C3)[O]C(=O)C4)NC(=O)[C@H]([C@@H](C)O)NC(=O)[C@H](Cc2cn(C)c3ccccc23)NC(=O)[C@H](CCCCNC(=O)N2CCN(CC(=O)O)CC2)NC(=O)[C@H](Cc2cn(C)c3c(Cl)cccc23)NC(=O)[C@H](CCC(=O)O)N(C)C(=O)[C@H](CCCC(N)=O)NC1=O` [PDC_EphA2-00026633] ({CH2CO}-[dA][NMe3Pal]NL[Aad](NH2)[NMeE][Trp(1-Me,7-Cl)]K([CO-Piperazinyl(4-CH2COOH)])[Trp(1-Me)]TK(DOTA(Lu))C-NH2; thioether N-12): the Kd is less than 1 nM. Consider `CC(C)C[C@@H]1NC(=O)[C@H](CC(N)=O)NC(=O)[C@H](Cc2cccnc2)N(C)C(=O)[C@@H](Cc2cccc(C(N)=O)c2)NC(=O)CSC[C@@H](C(N)=O)NC(=O)[C@H](CCCC(N)=O)NC(=O)[C@H]([C@@H](C)O)NC(=O)[C@H](Cc2cn(C)c3ccccc23)NC(=O)[C@H](CCC(=O)NC[C@H](O)[C@@H](O)[C@H](O)[C@H](O)CO)NC(=O)[C@H](Cc2cn(C)c3c(Cl)cccc23)NC(=O)[C@H](CC(N)=O)N(C)C(=O)[C@H](CCCCNC(=O)CN2CCN3CCN4CCN(CC2)CC(=O)[O][Lu]([O]C(=O)C3)[O]C(=O)C4)NC1=O` [PDC_EphA2-00026714] ({CH2CO}-[dPhe(3-CONH2)][NMe3Pal]NLK(DOTA(Lu))[NMeN][Trp(1-Me,7-Cl)]E(NH(1-deoxy-D-glucityl))[Trp(1-Me)]T[Aad](NH2)C-NH2; thioether N-12), for which the equilibrium dissociation constant (Kd) is less than 1 nM.

As to `CC(C)C[C@@H]1NC(=O)[C@H](CC(N)=O)NC(=O)[C@H](Cc2cccnc2)N(C)C(=O)[C@@H](Cc2cccc(C(N)=O)c2)NC(=O)CSC[C@@H](C(N)=O)NC(=O)[C@H](CCCC(N)=O)NC(=O)[C@H]([C@@H](C)O)NC(=O)[C@H](Cc2cn(C)c3ccccc23)NC(=O)[C@H](CCCCNC(=O)CN2CCN3CCN4CCN(CC2)CC(=O)[O][Lu]([O]C(=O)C3)[O]C(=O)C4)NC(=O)[C@H](Cc2cn(C)c3c(Cl)cccc23)NC(=O)[C@H](CC(N)=O)N(C)C(=O)[C@H](CCCC(N)=O)NC1=O` [PDC_EphA2-00026715] ({CH2CO}-[dPhe(3-CONH2)][NMe3Pal]NL[Aad](NH2)[NMeN][Trp(1-Me,7-Cl)]K(DOTA(Lu))[Trp(1-Me)]T[Aad](NH2)C-NH2; thioether N-12), the Kd is less than 1 nM.

Staying with this test, now noted: conjugates, Biacore T200 according to Example B15, Table B16; read-out: SPR Kd.
`CN1C(=O)[C@H](CCC(=O)NC[C@H](O)[C@@H](O)[C@H](O)[C@H](O)CO)NC(=O)[C@H](C2CCC2)NC(=O)[C@H](CC(N)=O)NC(=O)[C@H](Cc2cccnc2)N(C)C(=O)[C@@H](Cc2cccc(C(N)=O)c2)NC(=O)CSC[C@@H](C(=O)N[C@@H](CCCCNC(=O)CN2CCN(CC(=O)O)CCN(CC(=O)O)CCN(CC(=O)O)CC2)C(N)=O)NC(=O)[C@H](Cc2cn(C)c3ccccc23)NC(=O)[C@H](CCCCNC(=O)N2CCN(CC(=O)O)CC2)NC(=O)[C@H](Cc2cn(C)c3c(Cl)cccc23)NC(=O)[C@@H]1Cc1cccnc1.[Lu+3]` [PDC_EphA2-00026603-C301] ({CH2CO}-[dPhe(3-CONH2)][NMe3Pal]N[Gly(cBu)]E(NH(1-deoxy-D-glucityl))[NMe3Pal][Trp(1-Me,7-Cl)]K([CO-Piperazinyl(4-CH2COOH)])[Trp(1-Me)]CK(DOTA)-NH2; thioether N-10): the dissociation constant Kd is less than 1 nM.

These data come from patent US20260364215A1, “Radiopharmaceutical Compositions Targeting Ephrin Type-A Receptor 2 and Uses Thereof” (PeptiDream Inc., priority 2022, published 2026).
